# “Also recorded” adds a separate entry of the source.
# Assays:
# NAD+ levels = experiment: NAD+ measurement in skeletal muscle of NMN-treated mice; assay type: in vivo, C57BL/6J mice; conditions: for levels of cellular NAD+: young and old
# Experimental: (§1) C57BL/6J mice of 3, 6, 22, 24, or 30 months of age were obtained from the National Institutes of Aging mouse aging colony. Mice were acclimated for at least one-week prior to sacrifice. 3, and 24-month-old mice were given interperitoneal (IP) injections of 500 mg NMN/kg body weight per day or the equivalent volume of PBS for 7 consecutive days at 5:00 pm and 7:00 am on day 8 and sacrificed 4 hr after last injection. All animal studies followed the guidelines of and were approved by the Harvard Institutional Animal Care and Use Committee
# NAD^+ from C2C12 cells and skeletal muscle was quantified with a commercially available kit (BioVision) according to the manufacturer's instructions and as described before (Gomes et al., Biochim. Biophys. Acta. 1822:185-195 (2012)).
# (§2) C57BL/6J mice of 6, 22, or 30 months of age were obtained from the National Institutes of Aging mouse aging colony. Additionally 22 months old caloric restricted mice were also obtained from the National Institutes of Aging mouse aging colony. EGLN1 KO, SIRT1 KO and SIRT1 OE mice were generated as previously described (Minamishima et al., 2008; Price et al., 2012). Mice were acclimated for at least one-week prior to sacrifice. 3, 6, 22 and 24-month-old mice were given interperitoneal (IP) injections of 500 mg NMN/kg body weight per day or the equivalent volume of PBS for 7 consecutive days at 5:00 pm and 7:00 am on day 8 and sacrificed 4 hr after last injection.
# NAD^+ from skeletal muscle was quantified with a commercially available kit (BioVision) according to the manufacturer's instructions and as described before (Gomes et al., 2012).
# C57BL/6J mice of 3, 6, 22, or 24 months of age were obtained from the National Institutes of Aging mouse aging colony. Mice were acclimated for at least one-week prior to sacrifice. […]
# NAD^+ from C2C12 cells and skeletal muscle was quantified with a commercially available kit (BioVision) according to the manufacturer's instructions and as described before (Gomes et al., 2012).
# [1] = Lactate levels in skeletal muscle of NMN-treated mice; assay type: in vivo; conditions: 22-month-old mice; NMN one week
# Excerpt: as §2
# Atrogin-1 and MuRF1 = experiment: Immunoblot for muscle wasting markers in gastrocnemius; assay type: in vivo; conditions: skeletal muscle of old (22-month-old) mice; NMN
# Excerpt: as §2
# Protein extracts from tissue or C2C12 cells were obtained by lysis in ice-cold lysis buffer (150 mM NaCl, 10 mM Tris HCl (pH 7.4), 1 mM EDTA, 1 mM EGTA, 1% Triton X-100, 0.5% NP-40) supplemented with a cocktail of protease and phosphatase inhibitors (Roche). Protein content was determined by the Bradford protein assay (Biorad), and 50 μg proteins were run on SDS-PAGE under reducing conditions. The separated proteins were then electrophoretically transferred to a polyvinylidene difluoride membrane (Perkin-Elmer). […] The immunostaining was detected using horseradish peroxidase-conjugated anti-rabbit or anti-mouse immunoglobulin for 1 h at room temperature.
# [2] = system: inflammation related markers (TNFa, IL-6, IL-18); experiment: qPCR of inflammation related markers in gastrocnemius; assay type: in vivo, C57BL/6J mice; conditions: 22-month-old mice, NMN IP 500 mg/kg/day, 7 days, 500 mg/kg/day
# Experimental: as §1, with “6, 22, or 24” for “6, 22, 24, or 30”, “22, or 24 months of” for “24, or 30 months of”, “sacrifice. 3, 6, 22 and 24-month-old” for “sacrifice. 3, and 24-month-old”
# C57BL/6J mice of 6 months of age were given interperitoneal (IP) injections of 300 mg DMOG/kg body weight per day or the equivalent volume of PBS for 5 consecutive days. All animal studies followed the guidelines of and were approved by the Harvard Institutional Animal Care and Use Committee
# (§3) RNA from skeletal muscle and aorta were extracted with RNeasy mini kit (Qiagen) according to the instructions and quantified using the NanoDrop 1000 spectrophotometer (Thermo Scientific). cDNA was synthesized with the iSCRIP cDNA synthesis kit (BioRad) using 600 ng of RNA. Quantitative RT-PCR reactions were performed using 1 μM of primers and LightCycler® 480 SYBR Green Master (Roche) on an LightCycler® 480 detection system (Roche). Calculations were performed by a comparative method (2-ΔCT) using 18S as an internal control. […]
# primary myoblasts = experiment: qPCR of mitochondrial-encoded genes in primary myoblasts with NMNAT1 knockdown; assay type: cell-based, mice; conditions: knockdown of NMNAT1, NMN
# Experimental: Primary myoblasts cells were isolated from WT, SIRT1 KO (Price et al., 2012) and PGC-1α/β KO (Zechner et al., 2010) mice as previously described (Price et al., 2012). WT and PGC-1α/β KO primary myoblasts were plated and allowed to differentiate into myotubes by replacing the media with low glucose DMEM supplemented with 2% horse serum (Sigma-Aldrich) for 4 days. After the differentiation the cells were infected with empty vector or flag-SIRT1 adenovirus as described before (Gerhart-Hines et al., 2007). Media was replaced with fresh DMEM supplemented with 2% horse serum (Sigma-Aldrich) for an additional 48 hr and, after that the cells were harvested for the different assays as described. […]
# as §3, with “muscle tissue” for “muscle”, “C2C12 cells” for “aorta”, “(Roche).” for “(Roche). Calculations were performed by a comparative method (2-ΔCT) using 18S as an internal control.”
smiles,measurement,setting,value
"NC(=O)c1ccc[n+]([C@@H]2O[C@H](COP(=O)([O-])O)[C@@H](O)[C@H]2O)c1 [NMN, nicotinamide mononucleotide]",levels of cellular NAD+,"NAD+ levels; 3- and 24-month-old C57BL/6J mice, NMN 500 mg/kg IP, one week, treated vs untreated",approximately 2 fold
same,levels of cellular NAD+,"NAD+ levels; 6- and 22-month-old C57BL/6J mice, NMN one week",2 fold
same,NAD+ levels in the skeletal muscle of old mice,"NAD+ levels; gastrocnemius, 3- and 24-month-old C57BL6J mice, NMN IP 500 mg/kg/day, 7 days, colorimetric NAD+ assay",increases NAD+ levels
same,lactate levels in the skeletal muscle,[1],suppressed the increase in lactate levels
same,muscle wasting markers Atrogin-1 and MuRF1,Atrogin-1 and MuRF1,completely reversed
same,"expression of inflammation markers (TNFa, IL-6, IL-18) in the skeletal muscle",[2],completely reversed; also recorded: reverses age-related increase in inflammatory markers in the skeletal muscle
same,expression of mitochondrial-encoded genes,primary myoblasts,completely abolishes the ability of NMN to induce the expression of mitochondrial-encoded genes

# Reference: patent US20150265642A1, “NAD BIOSYNTHESIS AND PRECURSORS IN THE PREVENTION AND TREATMENT OF INFLAMMATION” (PRESIDENT AND FELLOWS OF HARVARD COLLEGE, priority 2013, published 2015)
